Results on 1 compound are retold here after publication PMC6021502, “Cannabigerol Action at Cannabinoid CB1 and CB2 Receptors and at CB1–CB2 Heteroreceptor Complexes” (Frontiers in Pharmacology, 2018).

The target in assay [1] is T1, SNAP-CB2R (Homo sapiens, UniProt P34972).
T1 construct: host or cells: HEK-293T, transient transfection (PEI)
Also on record: method as in Martínez-Pinilla et al., 2016. As to conditions: HTRF binding to CB2R; ref Martínez-Pinilla et al., 2016; read-out: KD used in the Cheng and Prusoff equation for homogeneous binding; cited from earlier work. For orientation: Time-resolved FRET reads energy transfer from a long-lived donor to a nearby acceptor.

The target in assay [2] is T1, SNAP-CB2R. Description: Homogeneous HTRF competition binding in living HEK-293T cells (fluorophore-conjugated CM-157). The following applies: living HEK-293T cells expressing SNAP-CB2R, 20 nM fluorescent ligand.
The target in assay [3] is T2, CB2R in a CB1–CB2 receptor heteromer context (Homo sapiens, UniProt P34972).
T2 construct: host or cells: HEK-293T, transient co-transfection (PEI)
T2 sequence (P34972 whole entry): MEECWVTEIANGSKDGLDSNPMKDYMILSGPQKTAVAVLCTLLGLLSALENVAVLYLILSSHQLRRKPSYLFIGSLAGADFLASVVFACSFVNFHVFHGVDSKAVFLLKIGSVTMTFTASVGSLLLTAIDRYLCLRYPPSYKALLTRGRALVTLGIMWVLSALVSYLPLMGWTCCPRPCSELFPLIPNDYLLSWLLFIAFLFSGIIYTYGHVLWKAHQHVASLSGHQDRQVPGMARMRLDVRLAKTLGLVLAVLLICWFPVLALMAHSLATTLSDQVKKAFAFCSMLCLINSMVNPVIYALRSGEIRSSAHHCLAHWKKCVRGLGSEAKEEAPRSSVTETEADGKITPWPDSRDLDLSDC
T2 sequence (P21554 whole entry partner): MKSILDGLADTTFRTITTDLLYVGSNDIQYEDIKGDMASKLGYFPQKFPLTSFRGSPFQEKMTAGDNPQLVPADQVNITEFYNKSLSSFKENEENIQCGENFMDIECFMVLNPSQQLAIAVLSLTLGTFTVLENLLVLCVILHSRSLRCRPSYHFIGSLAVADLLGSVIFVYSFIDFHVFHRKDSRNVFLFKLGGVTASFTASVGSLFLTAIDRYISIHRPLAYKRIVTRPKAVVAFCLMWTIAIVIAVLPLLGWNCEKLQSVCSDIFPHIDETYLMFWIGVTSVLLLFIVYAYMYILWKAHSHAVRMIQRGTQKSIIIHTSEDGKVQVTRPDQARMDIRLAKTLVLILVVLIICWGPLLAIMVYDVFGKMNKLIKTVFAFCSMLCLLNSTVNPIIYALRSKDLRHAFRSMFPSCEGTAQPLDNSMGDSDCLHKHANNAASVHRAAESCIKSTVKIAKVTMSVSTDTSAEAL
Description: Homogeneous HTRF competition binding in living HEK-293T cells expressing SNAP-CB2R and CB1R. The following applies: 20 nM fluorescent ligand, read-out: Ki, HTRF competition of fluorophore-conjugated CM-157 in the presence of CB1R.

T1 sequence (P34972 whole entry): as the sequence (P34972 whole entry) above

The term Kd denotes the equilibrium constant for the complex coming apart. In general, Ki refers to the dissociation constant of the complex between target and ligand, obtained from inhibition or displacement. As to `CC(C)(C)c1nc2cc(S(=O)(=O)c3ccnc(OCCCN)c3)ccc2n1CC1CCOCC1` [CM-157, 3-[[4-[2-tert-butyl-1-(tetrahydropyran-4-ylmethyl)benzimidazol-5-yl]sulfonyl-2-pyridyl]oxy]propan-1-amine, reference compound], the Kd at SNAP-CB2R [1] was 21 nM. The results for the inhibition constant (Ki) (on SNAP-CB2R [2]; in assay [3]) were 16 nM and 19 nM, respectively.
